Assay: not given
Details: rat, in vivo
With `NCC[C@H](O)C(=O)N[C@@H]1C[C@H](N)[C@@H](O[C@H]2O[C@H](CN)[C@@H](O)[C@H](O)[C@H]2O)[C@H](O)[C@H]1O[C@H]1O[C@H](CO)[C@@H](O)[C@H](N)[C@H]1O` [Amikacin] the “% Enhancement in bioavailability, Piperine + BE from Zingiber officinale” value was “Nil”.
In the case of `NNC(=O)c1ccncc1` [Isoniazid], the “% Enhancement in bioavailability, Piperine + BE from Zingiber officinale” value is reported as “Negligible”.
For `CC1COc2c(N3CCN(C)CC3)c(F)cc3c(=O)c(C(=O)O)cn1c23` (centres unmarked) [O-floxacin, Ofloxacin], the “% Enhancement in bioavailability, Piperine + BE from Zingiber officinale” value was 67%.
With `Nc1nc2c(ncn2COCCO)c(=O)[nH]1` [Acyclovir] the “% Enhancement in bioavailability, Piperine + BE from Zingiber officinale” value was 85%.
For `CCOC(=O)C1=C(COCCN)NC(C)=C(C(=O)OC)C1c1ccccc1Cl` (centres unmarked) [Amlodipine], the “% Enhancement in bioavailability, Piperine + BE from Zingiber officinale” value was 95%.
In the case of `NC(=O)c1cnccn1` [Pyrazinamide], the “% Enhancement in bioavailability, Piperine + BE from Zingiber officinale” value is reported as “Nil”.
For `C=CC[C@@H]1/C=C(\C)C[C@H](C)C[C@H](OC)[C@H]2O[C@@](O)(C(=O)C(=O)N3CCCC[C@H]3C(=O)O[C@H](/C(C)=C/[C@@H]3CC[C@@H](O)[C@H](OC)C3)[C@H](C)[C@@H](O)CC1=O)[C@H](C)C[C@@H]2OC` [Tacrolimus], the “% Enhancement in bioavailability, Piperine + BE from Zingiber officinale” value was 117%.
With `C=CC1=C(C(=O)O)N2C(=O)[C@@H](NC(=O)/C(=N\OCC(=O)O)c3csc(N)n3)[C@H]2SC1` [Cefixime] the “% Enhancement in bioavailability, Piperine + BE from Zingiber officinale” value was “Nil”.
With `Cc1onc(-c2ccccc2Cl)c1C(=O)N[C@@H]1C(=O)N2[C@@H]1SC(C)(C)[C@@H]2C(=O)O` [Cloxacillin] the “% Enhancement in bioavailability, Piperine + BE from Zingiber officinale” value was 90%.
With `CC[C@@H](CO)NCCN[C@@H](CC)CO` [Ethambutol] the “% Enhancement in bioavailability, Piperine + BE from Zingiber officinale” value was “Nil”.
For `CC[C@H]1OC(=O)[C@H](C)[C@@H](O[C@H]2C[C@@](C)(OC)[C@@H](O)[C@H](C)O2)[C@H](C)[C@@H](O[C@@H]2O[C@H](C)C[C@H](N(C)C)[C@H]2O)[C@](C)(O)C[C@@H](C)/C(=N\OCOCCOC)[C@H](C)[C@@H](O)[C@]1(C)O` [Roxythromycin], the “% Enhancement in bioavailability, Piperine + BE from Zingiber officinale” value was 93%.
For `O=C(O)Cc1ccccc1Nc1c(Cl)cccc1Cl` [Diclofenac], the “% Enhancement in bioavailability, Piperine + BE from Zingiber officinale” value was 140%.
With `CNC(=C[N+](=O)[O-])NCCSCc1ccc(CN(C)C)o1` [Ranitidine] the “% Enhancement in bioavailability, Piperine + BE from Zingiber officinale” value was 165%.
In the case of `COc1ccc2[nH]c([S+]([O-])Cc3ncc(C)c(OC)c3C)nc2c1` (centres unmarked) [Omeprazole], the “% Enhancement in bioavailability, Piperine + BE from Zingiber officinale” value is reported as “Nil”.
With `CC[C@H]1OC(=O)[C@H](C)[C@@H](O[C@H]2C[C@@](C)(OC)[C@@H](O)[C@H](C)O2)[C@H](C)[C@@H](O[C@@H]2O[C@H](C)C[C@H](N(C)C)[C@H]2O)[C@](C)(O)C[C@@H](C)CN(C)[C@H](C)[C@@H](O)[C@]1(C)O` [Azithromycin] the “% Enhancement in bioavailability, Piperine + BE from Zingiber officinale” value was 85%.
In the case of `CC1=C(C(=O)O)N2C(=O)[C@@H](NC(=O)[C@H](N)c3ccc(O)cc3)[C@H]2SC1` [Cefadroxil], the “% Enhancement in bioavailability, Piperine + BE from Zingiber officinale” value is reported as 65%.
In the case of `CN1C(C(=O)Nc2ccccn2)=C(O)c2ccccc2S1(=O)=O` [Piroxicam], the “% Enhancement in bioavailability, Piperine + BE from Zingiber officinale” value is reported as 134%.
With `N[C@@H]1CON=C1O` [Cycloserine] the “% Enhancement in bioavailability, Piperine + BE from Zingiber officinale” value was 70%.
In the case of `CC[C@H]1OC(=O)[C@H](C)[C@@H](O[C@H]2C[C@@](C)(OC)[C@@H](O)[C@H](C)O2)[C@H](C)[C@@H](O[C@@H]2O[C@H](C)C[C@H](N(C)C)[C@H]2O)[C@](C)(O)C[C@@H](C)C(=O)[C@H](C)[C@@H](O)[C@]1(C)O` [Erythromycin], the “% Enhancement in bioavailability, Piperine + BE from Zingiber officinale” value is reported as 105%.
With `CCn1cc(C(=O)O)c(=O)c2cc(F)c(N3CCNCC3)cc21` [Norfloxacin] the “% Enhancement in bioavailability, Piperine + BE from Zingiber officinale” value was “Negligible”.

Assay: Bioavailability enhancement of a drug/nutraceutical/herbal product given with bioenhancer (BE) to fasted rats; plasma drug level by HPLC, 0-24 hrs
Details: drug + BE from Zingiber officinale (extract 30 mg/kg or fraction No 1 15 mg/kg)
For `CN(Cc1cc(Br)cc(Br)c1N)C1CCCCC1` [Bromhexine], the “% Enhancement in bioavailability, BE from Zingiber officinale” value was 46%.

Same assay, conditions: drug + piperine 8 mg/kg + BE from Zingiber officinale
For `COc1cccc2c1C(=O)c1c(O)c3c(c(O)c1C2=O)C[C@@](O)(C(=O)CO)C[C@@H]3O[C@H]1C[C@H](N)[C@H](O)[C@H](C)O1` [Doxorubicin], the “% Enhancement in bioavailability, Piperine + BE from Zingiber officinale” value was 75%.
For `CN/C(=N/CCSCc1nc[nH]c1C)NC#N` [Cimetidine], the “% Enhancement in bioavailability, Piperine + BE from Zingiber officinale” value was 76%.
With `CO[C@H]1/C=C/O[C@@]2(C)Oc3c(C)c(O)c4c(O)c(c(/C=N/N5CCN(C)CC5)c(O)c4c3C2=O)NC(=O)/C(C)=C\C=C\[C@H](C)[C@H](O)[C@@H](C)[C@@H](O)[C@@H](C)[C@H](OC(C)=O)[C@@H]1C` [Rifampicin] the “% Enhancement in bioavailability, Piperine + BE from Zingiber officinale” value was 98%.
For `Nc1ccc(S(=O)(=O)c2ccc(N)cc2)cc1` [Dapsone], the “% Enhancement in bioavailability, Piperine + BE from Zingiber officinale” value was 55%.
For `O=c1[nH]cc(F)c(=O)[nH]1` [5-Fluorouracil], the “% Enhancement in bioavailability, Piperine + BE from Zingiber officinale” value was 93%.
For `Cc1nnc2n1-c1ccc(Cl)cc1C(c1ccccc1)=NC2` [Aiprazolam, Alprazolam], the “% Enhancement in bioavailability, Piperine + BE from Zingiber officinale” value was 70%.
With `CC(C)(C)NCC(O)c1ccc(O)c(CO)c1` (centres unmarked) [Salbutamol] the “% Enhancement in bioavailability, Piperine + BE from Zingiber officinale” value was 92%.
In the case of `CCc1cc(C(N)=S)ccn1` [Ethionamide], the “% Enhancement in bioavailability, Piperine + BE from Zingiber officinale” value is reported as 48%.
In the case of `CN(Cc1cc(Br)cc(Br)c1N)C1CCCCC1` [Bromhexine], the “% Enhancement in bioavailability, Piperine + BE from Zingiber officinale” value is reported as 75%.
In the case of `CC(=O)N1CCN(c2ccc(OCC3COC(Cn4ccnc4)(c4ccc(Cl)cc4Cl)O3)cc2)CC1` (centres unmarked) [Ketoconazole], the “% Enhancement in bioavailability, Piperine + BE from Zingiber officinale” value is reported as 100%.
For `CN(Cc1cnc2nc(N)nc(N)c2n1)c1ccc(C(=O)N[C@@H](CCC(=O)O)C(=O)O)cc1` [Methotrexate], the “% Enhancement in bioavailability, Piperine + BE from Zingiber officinale” value was 49%.
With `CC1(C)S[C@@H]2[C@H](NC(=O)[C@H](N)c3ccc(O)cc3)C(=O)N2[C@H]1C(=O)O` [Amoxycillin] the “% Enhancement in bioavailability, Piperine + BE from Zingiber officinale” value was 90%.
For `Cc1cn([C@H]2C[C@H](N=[N+]=[N-])[C@@H](CO)O2)c(=O)[nH]c1=O` [Zidovudine], the “% Enhancement in bioavailability, Piperine + BE from Zingiber officinale” value was 126%.
With `Cn1c(=O)c2[nH]cnc2n(C)c1=O` [Theophylline] the “% Enhancement in bioavailability, Piperine + BE from Zingiber officinale” value was 80%.
For `CC(C)NCC(O)COc1cccc2ccccc12` (centres unmarked) [Propranolol], the “% Enhancement in bioavailability, Piperine + BE from Zingiber officinale” value was 104%.
In the case of `CS(=O)(=O)Nc1ccc([N+](=O)[O-])cc1Oc1ccccc1` [Nimesulide], the “% Enhancement in bioavailability, Piperine + BE from Zingiber officinale” value is reported as 165%.
With `NCCCC[C@H](N[C@@H](CCc1ccccc1)C(=O)O)C(=O)N1CCC[C@H]1C(=O)O` [Lisinopril] the “% Enhancement in bioavailability, Piperine + BE from Zingiber officinale” value was 100%.
